Source: PMC3914206

How the values were obtained:
[1] = target: T1, panel of 442 kinases (Homo sapiens, UniProt P54753); assay type: binding; design: KINOMEscan: ABL1(F317L)-phosphorylated / KINOMEscan: ABL1(H396P)-nonphosphorylated / KINOMEscan: ABL1(H396P)-phosphorylated / KINOMEscan: ABL1(M351T)-phosphorylated / KINOMEscan: ABL1(T315I)-phosphorylated / KINOMEscan: ABL1-nonphosphorylated / KINOMEscan: ABL1-phosphorylated / KINOMEscan: ACVR2A / KINOMEscan: ACVR2B / KINOMEscan: ADCK3 / KINOMEscan: ADCK4 / KINOMEscan: AKT1 / KINOMEscan: AKT3 / KINOMEscan: ALK / KINOMEscan: ARK5 / KINOMEscan: AURKA / KINOMEscan: AURKC / KINOMEscan: BIKE / KINOMEscan: BMPR1A / KINOMEscan: BMPR1B / KINOMEscan: BMX / KINOMEscan: BRK / KINOMEscan: BRSK1 / KINOMEscan: BRSK2 / KINOMEscan: CAMK1 / KINOMEscan: CAMK1D / KINOMEscan: CAMK1G / KINOMEscan: CAMK2A / KINOMEscan: CAMK2B / KINOMEscan: AAK1 / KINOMEscan: CAMK2D / KINOMEscan: CAMK2G / KINOMEscan: ABL1(F317I)-nonphosphorylated / KINOMEscan: ABL1(F317I)-phosphorylated / KINOMEscan: ABL1(F317L)-nonphosphorylated: unit: % Ctrl; conditions: Compound Concentration 10 µM
T1 construct: purchased KINOMEscan
T1 sequence (P54753 34-998): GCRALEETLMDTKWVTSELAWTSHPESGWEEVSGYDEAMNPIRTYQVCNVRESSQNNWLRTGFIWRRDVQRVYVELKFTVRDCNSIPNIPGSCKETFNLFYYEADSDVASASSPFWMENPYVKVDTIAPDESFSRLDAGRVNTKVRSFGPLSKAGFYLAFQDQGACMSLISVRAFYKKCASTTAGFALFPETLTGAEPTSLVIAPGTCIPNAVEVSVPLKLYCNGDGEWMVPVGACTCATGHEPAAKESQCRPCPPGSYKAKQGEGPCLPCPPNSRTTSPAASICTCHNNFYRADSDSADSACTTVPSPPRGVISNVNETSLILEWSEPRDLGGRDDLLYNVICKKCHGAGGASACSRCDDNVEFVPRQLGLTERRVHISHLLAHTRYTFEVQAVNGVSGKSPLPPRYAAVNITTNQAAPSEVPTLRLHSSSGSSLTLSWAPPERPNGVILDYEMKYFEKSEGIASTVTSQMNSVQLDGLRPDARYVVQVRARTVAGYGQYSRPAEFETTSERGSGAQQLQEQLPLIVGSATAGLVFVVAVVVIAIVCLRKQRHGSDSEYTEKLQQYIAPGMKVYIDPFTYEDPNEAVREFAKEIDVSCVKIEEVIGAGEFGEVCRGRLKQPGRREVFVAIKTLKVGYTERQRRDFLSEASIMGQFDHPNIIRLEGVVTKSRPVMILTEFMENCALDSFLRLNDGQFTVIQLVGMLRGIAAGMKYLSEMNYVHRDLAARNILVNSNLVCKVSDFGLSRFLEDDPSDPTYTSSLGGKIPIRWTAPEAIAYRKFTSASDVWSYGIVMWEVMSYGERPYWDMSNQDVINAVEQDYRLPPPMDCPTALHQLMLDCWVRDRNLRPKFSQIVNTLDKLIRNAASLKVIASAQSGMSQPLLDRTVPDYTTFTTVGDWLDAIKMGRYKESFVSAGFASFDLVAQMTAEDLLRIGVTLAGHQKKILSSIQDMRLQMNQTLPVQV
Text: (§1) We assessed the selectivity of members of this scaffold using the KINOMEscan methodology across a near comprehensive panel of 442 kinases [[18,27]].

[2] = target: T2, panel of 442 kinases (Homo sapiens, UniProt P51813); assay type: binding; design: KINOMEscan: ABL1(F317L)-phosphorylated / KINOMEscan: ABL1(H396P)-nonphosphorylated / KINOMEscan: ABL1(H396P)-phosphorylated / KINOMEscan: ABL1(M351T)-phosphorylated / KINOMEscan: ABL1(T315I)-phosphorylated / KINOMEscan: ABL1-nonphosphorylated / KINOMEscan: ABL1-phosphorylated / KINOMEscan: ACVR2A / KINOMEscan: ACVR2B / KINOMEscan: ADCK3 / KINOMEscan: ADCK4 / KINOMEscan: AKT1 / KINOMEscan: AKT3 / KINOMEscan: ALK / KINOMEscan: ARK5 / KINOMEscan: AURKA / KINOMEscan: AURKC / KINOMEscan: BIKE / KINOMEscan: BMPR1A / KINOMEscan: BMPR1B / KINOMEscan: BMX / KINOMEscan: BRK / KINOMEscan: BRSK1 / KINOMEscan: BRSK2 / KINOMEscan: CAMK1 / KINOMEscan: CAMK1D / KINOMEscan: CAMK1G / KINOMEscan: CAMK2A / KINOMEscan: CAMK2B / KINOMEscan: AAK1 / KINOMEscan: CAMK2D / KINOMEscan: CAMK2G / KINOMEscan: ABL1(F317I)-nonphosphorylated / KINOMEscan: ABL1(F317I)-phosphorylated / KINOMEscan: ABL1(F317L)-nonphosphorylated: unit: % Ctrl; conditions: Compound Concentration 10 µM
T2 construct: purchased KINOMEscan
T2 sequence (P51813 1-675): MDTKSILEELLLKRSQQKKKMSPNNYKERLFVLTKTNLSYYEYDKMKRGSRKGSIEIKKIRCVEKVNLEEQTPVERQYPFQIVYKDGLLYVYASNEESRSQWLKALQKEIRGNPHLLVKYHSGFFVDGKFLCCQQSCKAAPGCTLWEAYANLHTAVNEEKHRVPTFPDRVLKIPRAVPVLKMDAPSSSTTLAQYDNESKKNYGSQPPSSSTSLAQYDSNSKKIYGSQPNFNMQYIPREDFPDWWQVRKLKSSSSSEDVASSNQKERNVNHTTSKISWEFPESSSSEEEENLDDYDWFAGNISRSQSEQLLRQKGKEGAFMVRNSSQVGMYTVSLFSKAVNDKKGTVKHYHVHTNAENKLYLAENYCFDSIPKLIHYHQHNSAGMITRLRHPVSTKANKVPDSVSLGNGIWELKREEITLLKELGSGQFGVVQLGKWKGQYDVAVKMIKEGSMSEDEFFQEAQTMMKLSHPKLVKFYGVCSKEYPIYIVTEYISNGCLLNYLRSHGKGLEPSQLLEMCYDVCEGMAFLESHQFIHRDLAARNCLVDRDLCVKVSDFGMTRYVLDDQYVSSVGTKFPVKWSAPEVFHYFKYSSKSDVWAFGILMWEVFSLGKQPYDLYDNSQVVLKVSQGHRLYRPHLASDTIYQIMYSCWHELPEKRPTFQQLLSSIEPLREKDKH
Text: as §1

Row | SMILES | KINOMEscan: EPHB3 [1] | KINOMEscan: BMX [2]
1 | COc1cc(C(=O)N2CCC(N3CCN(C)CC3)CC2)ccc1Nc1ncc2c(n1)N(C)c1ccccc1C(=O)N2C [15 (LRRK2-IN-1)] | 100 | 87
2 | CCOc1cc(C(=O)N2CCC(N3CCN(C)CC3)CC2)ccc1Nc1ncc2c(n1)N(C1CCCC1)c1ccccc1C(=O)N2C [Compound 26] | 100 | 100
3 | COc1cc(C(=O)N2CCC(N3CCN(C)CC3)CC2)ccc1Nc1ncc2c(n1)N1CCc3cccc(c31)C(=O)N2C [Compound 24] | – | 71
4 | COc1cc(C(=O)N2CCC(N3CCN(C)CC3)CC2)ccc1Nc1ncc2c(n1)N(C1CCCC1)c1ccccc1C(=O)N2C [Compound 25, 11-cyclopentyl-2-((2-methoxy-4-(4-(4-methylpiperazin-1-yl)piperidine-1-carbonyl)phenyl)amino)-5-methyl-5H-benzo[e]pyrimido[5,4-b][1,4]diazepin-6(11H)-one] | 96 | 91
